The record followed here is patent US8143237B2, “Anti-cancer drugs, and uses relating for malignant melanoma and other cancers” (Kasina Laila Innova Pharmaceuticals Private Limited, priority 2009, dated 2012).

≈ marks a conversion by molar mass, not a printed value. Entries after “also recorded” stand apart in the source; their conditions may differ.

The subject of assay [1] is mouse malignant melanoma B16 F0 cells. The assay is described as follows: MTT based cell proliferation assay, B16 F0 cells. The conditions noted are these: for IC50: Mus musculus, B16F0, 72 h, MTT, three days incubation, read-out: Cell proliferation inhibition in B16F0 cells, IC50. The procedure: (§1) The cytotoxic efficacies of the various selenopheno triazene compounds (compounds 1 to 16) was evaluated in both human malignant melanoma A375 cells and mouse malignant melanoma B16 F0 cells by MTT cell proliferation assay kit (Roche Applied Sciences, Germany). The assay was carried out according to the instruction provided by the vendor. Briefly, equal numbers of cells was plated in 96-well flat-bottomed plates and were incubated with both DTIC and the test compounds (compounds 1 to 16) at various concentrations for a period of three days. […] Finally, the cells were solubilized by adding solubilizing solution and allowed to incubate at 37° C. overnight. After complete solubilization of the formazan crystals, the absorbance was read at 540 nm in a microplate reader (BioRad, USA).

For assay [2], the system named is human malignant melanoma A375 cells. The assay is described as follows: MTT based cell proliferation assay, A375 cells. Conditions: A-375, 72 h, three days incubation, read-out: Cell proliferation inhibition in A375 cells, IC50. The procedure: as §1
Assay [3] deals with DU145 prostate tumor cells. The assay is described as follows: MTT based cell proliferation assay, DU145. Conditions: Homo sapiens, DU-145, read-out: Anti-tumor growth potential (IC50) in DU145. The procedure:
(§2) MTT [3-(4,5-dimethylthiazol-2-yl)-2,5-diphenyltetrazolium bromide] incorporation based cell proliferation assay was performed using standard procedure. The cytotoxic efficacies of the various selenopheno triazene compounds (compounds 1 to 16) was evaluated in both human malignant melanoma A375 cells and mouse malignant melanoma B16 F0 cells by MTT cell proliferation assay kit (Roche Applied Sciences, Germany). The assay was carried out according to the instruction provided by the vendor. Briefly, equal numbers of cells was plated in 96-well flat-bottomed plates and were incubated with both DTIC and the test compounds (compounds 1 to 16) at various concentrations for a period of three days. Vehicle control culture wells received only a maximum of 0.5% DMSO. Thereafter, 0.5 mg/ml of MTT reagent was added to each well and the microplate was incubated further for 4 h at 37° C. in presence of 5% CO2. […] After complete solubilization of the formazan crystals, the absorbance was read at 540 nm in a microplate reader (BioRad, USA). […]
(§3) Anti-tumor growth potential of Compound 1 and DTIC were evaluated in various human tumor cells such as A549 lung tumor cells, DU145 prostate tumor cells, HT29 colon cancer cells and MCF-7 (ER^+) breast tumor cells in vitro, by using MTT based cell proliferation assay as described earlier (example 17). […]

The subject of the next assay is HT29 colon cancer cells. The assay is described as follows: MTT based cell proliferation assay, HT29. The conditions noted are these: Homo sapiens, HT-29, read-out: Anti-tumor growth potential (IC50) in HT29. As for the experimental part: as §2, §3
In another assay the test system is B16F0 cells. The assay is described as follows: B16 F0 mouse melanoma cell colony formation assay. The format is cell-based. Conditions: 8 days. As for the experimental part:
Inhibitory efficacy in clone formation of the Compound 1 and DTIC was tested by following the procedure described earlier with some modifications. Briefly, B 16F0 cells were harvested and seeded into 6-well plates (100 cells/ml). The cells were allowed to grow for 4 days and thereafter, the cells were incubated with DMEM containing either 0.1% DMS 0 or 100 μg/ml DTIC or different concentrations (1, 5, 10 or 20 μg/ml) of Compound 1 for further 8 days. Fresh medium containing test agents was replaced at every 24 h. Finally, the wells were washed three times with PBS and fixed in methanol for 15 min. The cells were stained with Giemsa stain and observed under microscope. The image of the stained wells were captured digitally (Kodak Image Station 4000 mM, Carestream Health Inc., New Haven, Conn.) and number of colonies were counted and analyzed by using NIH Image J software.

Assay [4] concerns B16F0 mouse melanoma cells. The assay is described as follows: Matrigel cell invasion assay. The format is cell-based. Conditions: 24 h. As for the experimental part:
The inhibitory effects of DTIC and compound 1 on invasive ability of B16F0 were tested in cell invasion assay performed with by using Matrigel (BME-Cultrex®, R&D Systems, USA) coated cell culture inserts (Becton Dickinson, USA) with 8 μm-pore membrane. Equal number (fifty thousands) of B16F0 cells were applied in each insert well and allowed to attach for 2 h at 37° C. and in presence of 5% CO2. Thereafter, the cellular invasion through the matrigel layer was performed in presence or absence of test compounds. Either 100 μg/ml of DTIC or 20 μg/ml of Compound 1 was applied in the lower chamber of the invasion assembly. 0.1% DMSO was applied in the vehicle control culture chambers. After 24 h treatment, the matrigel layer containing cells was removed with cotton plug and the invaded cells on the other side of the membrane were fixed with methanol for 5 min and then stained with Giemsa. The stained membrane was mounted on a glass slide and number invaded cells were counted in 20 random fields (20× objective) under a light microscope (Nikon Eclipse TS 100).

The subject of assay [5] is B16 F0 melanoma xenograft. The assay is described as follows: B16 F0 melanoma xenograft model of C57B6J mice. The class given is in vivo, mouse. The conditions noted are these: fourteen days, tumor weight. As for the experimental part: In vivo efficacy of compound 1 against melanoma growth was evaluated in B 16 F0 melanoma xenograft model of C57B6J mice. C57B6J mice of 6 weeks age (body weight 18-22 g) were purchased from National Institute of Nutrition (NIN), Hyderabad (India). Animals study protocols were approved by Institutional Ethics Committee (IAEC). All the studies were performed in compliance with the Committee for the Purpose of Control and Supervision of Experiments on Animals (CPCSEA) guidelines and OECD guidelines. Animals were allowed free access to standard feed and provided charcoal filtered and UV exposed water ad libitum. The animals were maintained at a controlled temperature (24-26° C.), humidity (45-70%), and 12 h/12 h of light/dark cycle.
To induce the melanoma tumor formation, sub-confluent B16F0 cells were harvested by brief trypsinization and 1×10^6 cells were injected subcutaneously in 0.2 ml phosphate-buffered saline. Drug treatment was started after development of palpable tumors (3-5 days after implantation of the cells). Drugs were prepared in phosphate-buffered saline (10% DMSO, v/v) and either 75 mg/kg of DTIC or 25 mg/kg of compound 1 was administered daily through intra-peritoneal route. Vehicle treated control animals received only 10% DMSO in phosphate buffered saline. After fourteen days of treatment, the animals were sacrificed by CO2 inhalation and tumors were excised and weighed.

`CN(C)N=Nc1[nH]cnc1C(N)=O` [DTIC, 5-(3,3-dimethyl-1-trizeno)-imidazole-4-carboxamide, reference compound]: the IC50 in assay [1] was 325 µg/mL (≈ 1790 µM); in assay [2] it was 70.1 µg/mL (≈ 385 µM); in assay [3] it was 58.5 µg/mL (≈ 321 µM); in the assay with HT29 colon cancer cells, 141 µg/mL (≈ 774 µM). The inhibition at 100 µg/mL in the assay on B16F0 cells (Mus musculus, B16F0, 192 h, at 100 μg/ml, read-out: Inhibition of B16 colony formation (number of colonies)) is 35.8%. Besides, the “B16 F0 melanoma tumor cell invasion vs vehicle control” value in assay [4] (100 μg/ml) was “could not significantly inhibit; also recorded: failed to inhibit the tumor cell invasion”. For the same molecule, the “Inhibition in tumor growth, mouse melanoma xenograft model of C57B6J mice” value in assay [5] (75 mg/kg daily intra-peritoneal) was 17%.
For `Cc1[se]c(C(N)=O)cc1/N=N/N(C)C` [Compound 1, 4-[(dimethylamino)diazenyl]-5-methylselenophene-2-carboxamide], the “Potency of inhibition relative to Dacarbazine, mouse melanoma B16 cells” value in assay [1] (MTT IC50 comparison) is on record as 5 times. For the same molecule, the IC50 in assay [1] amounted to 46.6 µg/mL (≈ 180 µM); in assay [2], 9.81 µg/mL (≈ 37.9 µM); in assay [3], 8.97 µg/mL (≈ 34.6 µM); with HT29 colon cancer cells, 13.3 µg/mL (≈ 51.3 µM). For the same molecule, the “Reduction in number of B16 colonies” value in the assay on B16F0 cells (at 1 μg/ml) stood at 11%; with B16F0 cells (at 5 μg/ml), 35%; with B16F0 cells (at 10 μg/ml) it was 54%; in the assay with B16F0 cells (at 20 μg/ml), 94%. For the same molecule, the “B16 F0 melanoma tumor cell invasion vs vehicle control” value in assay [4] (20 μg/ml, p=0.0017) is “significantly reduced; also recorded: significantly inhibited the invasion”. Further, in assay [5] (25 mg/kg daily intra-peritoneal), the “Inhibition in tumor growth, mouse melanoma xenograft model of C57B6J mice” value was determined as 31.2%.

One may read the inhibition as the change of the read-out against control, counted positive when it falls.
